Measured values as given in paper PMC2610488 (Journal of medicinal chemistry, 2008).

Key:
[1] = target: M. tuberculosis HisG (ATP-PRTase) (Mycobacterium tuberculosis, UniProt P9WMN1); type: biochemical; conditions: read-out: inhibition of enzyme activity
M. smegmatis = test: Whole-cell assay, growth inhibition on agar plates; type: cell-based; conditions: 12 μg/ml, 4 days
HisG = conditions: competitive inhibitor for both substrates; cited from earlier work
E. coli HisG = conditions: E. coli enzyme; cited from earlier work
[2] = system: Arabidopsis thaliana HisG; conditions: cited from earlier work

Chain of M. tuberculosis HisG (ATP-PRTase) (P9WMN1 whole entry): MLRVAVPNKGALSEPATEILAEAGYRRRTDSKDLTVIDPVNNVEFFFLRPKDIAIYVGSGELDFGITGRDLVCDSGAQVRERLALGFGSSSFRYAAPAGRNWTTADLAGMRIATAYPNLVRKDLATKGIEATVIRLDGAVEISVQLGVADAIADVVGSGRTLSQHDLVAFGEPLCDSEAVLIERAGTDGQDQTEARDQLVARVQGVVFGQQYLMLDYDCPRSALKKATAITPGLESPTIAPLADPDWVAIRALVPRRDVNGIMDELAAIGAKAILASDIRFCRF

Question: Which inhibition at 10 µM [1] does the source give for O=C(CSc1nnc(-c2ccccc2)c(-c2ccccc2)n1)Cc1nccs1 [Compound 4] here?
Answer: > 50%

Question: For O=[N+]([O-])c1ccc(Nc2cc(Nc3cccc(O)c3)c3nonc3c2[N+](=O)[O-])c(O)c1 [Compound 18], which growth inhibition (M. smegmatis) is on record?
Answer: significant growth inhibition

Question: For COc1ccc(COC(=O)C2=C(C)NC3=C(C(=O)CC(c4cccs4)C3)C2c2cccs2)cc1 (stereo not shown) [Compound 10], which inhibition at 10 µM [1] is on record?
Answer: > 50%

Question: For Nc1ncnc2c1ncn2[C@@H]1O[C@H](COP(=O)(O)O)[C@@H](O)[C@H]1O [AMP, adenosine monophosphate], which Ki (HisG) is on record?
Answer: 550 µM

Question: For O=c1oc2ccccc2c(O)c1Cc1c(O)c2ccccc2oc1=O [dicoumarol], which Ki (E. coli HisG) is on record?
Answer: 60 µM

Question: For O=C(CC(NC(=O)c1ccccc1)c1ccccc1)Nc1nc2ccc([N+](=O)[O-])cc2s1 (stereo not shown) [Compound 6], which inhibition at 10 µM [1] is on record?
Answer: > 50%

Question: With di-(amino-naphthyl)-disulfide as the molecule, how does the IC50 [2] read?
Answer: 0.05 µM
